# Structures can show the parent of a compound that is named as a salt. Where two headings read alike, the source gives them in different places.
# Legend:
# sigma-2 receptor (σ2R) = molecular target: T1, sigma-2 receptor (σ2R) (Rattus norvegicus, UniProt Q5U3Y7); experiment: σ2R radioligand binding ([3H]DTG); conditions: read-out: σ2R Ki [nM] x̄ [CI 95%]; mean [CI 95%]
# T1 construct: The thawed membrane preparation of rat liver was incubated; from tissue; host or cells: Sprague-Dawley rat liver membranes
# T1 sequence (Q5U3Y7 1-176): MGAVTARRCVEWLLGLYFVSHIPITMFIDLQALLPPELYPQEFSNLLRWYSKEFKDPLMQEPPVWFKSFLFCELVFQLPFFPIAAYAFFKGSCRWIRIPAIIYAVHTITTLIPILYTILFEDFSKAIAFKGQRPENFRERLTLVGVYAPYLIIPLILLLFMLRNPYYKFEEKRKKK
# [1] = molecular target: T2, human recombinant histamine H3R (Homo sapiens, UniProt Q9Y5N1); conditions: read-out: hH3R Ki [nM] x̄ [CI 95%]; mean [CI 95%]; recalculated from published data; cited from earlier work
# T2 construct: expressed in transfected cells
# T2 sequence (Q9Y5N1 whole entry): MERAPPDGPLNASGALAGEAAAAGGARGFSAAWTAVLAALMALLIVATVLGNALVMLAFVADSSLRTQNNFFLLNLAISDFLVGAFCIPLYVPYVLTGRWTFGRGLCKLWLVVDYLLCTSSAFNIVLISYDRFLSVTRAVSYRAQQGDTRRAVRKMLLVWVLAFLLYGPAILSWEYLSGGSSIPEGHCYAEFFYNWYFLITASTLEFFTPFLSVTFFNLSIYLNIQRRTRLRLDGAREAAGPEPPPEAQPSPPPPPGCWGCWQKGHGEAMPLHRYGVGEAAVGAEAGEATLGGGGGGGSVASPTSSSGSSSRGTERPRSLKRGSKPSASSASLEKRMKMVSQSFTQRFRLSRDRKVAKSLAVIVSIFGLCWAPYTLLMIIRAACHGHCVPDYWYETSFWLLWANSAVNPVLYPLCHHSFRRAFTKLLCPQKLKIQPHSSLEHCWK
# sigma-1 receptor (σ1R) [2] = molecular target: T3, sigma-1 receptor (σ1R) (Cavia porcellus, UniProt Q60492); experiment: σ1R radioligand binding ([3H](+)-pentazocine); set-up: species or system guinea pig; conditions: read-out: σ1R Ki [nM] x̄ [CI 95%]; mean [CI 95%]
# T3 construct: The thawed membrane preparation of the guinea pig brain cortex was incubated; from tissue; host or cells: male Dunkin-Hartley guinea pig brain cortex membranes
# T3 sequence (Q60492 whole entry): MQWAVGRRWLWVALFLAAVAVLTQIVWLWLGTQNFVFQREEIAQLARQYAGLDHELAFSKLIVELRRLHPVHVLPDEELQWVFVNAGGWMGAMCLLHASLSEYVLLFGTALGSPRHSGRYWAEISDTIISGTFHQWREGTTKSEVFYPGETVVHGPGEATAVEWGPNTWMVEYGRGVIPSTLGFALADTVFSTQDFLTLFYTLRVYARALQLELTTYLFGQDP
# H3R = molecular target: H3R; set-up: method as in PMID 30359639; conditions: Figure 1, compounds evaluated in clinical trials; cited from earlier work
# mice [3] = experiment: spontaneous locomotor activity; type: in vivo; conditions: 15 mg/kg i.p.
# Method: The high sedative activity of analgesics is considered an undesirable property, which may lead to an incorrect or ambiguous interpretation of the in vivo results. Moreover, it may limit the potential clinical application of new drug candidates.
# This test was carried out according to the procedure described elsewhere.[84] The animals were injected (i.p.) with 12 at doses of 5, 15, and 30 mg/kg and placed in the activity cages individually (30 min before the experiment). The number of light-beam crossings was counted in each group during the next 30 min in 10 min intervals.
# [4] = molecular target: T4, human histamine H2 receptor (hH2R) (Homo sapiens, UniProt P25021); experiment: hH2R radioligand binding ([3H]UR-DE257); conditions: HEK293T cells, n = 3, triplicate
# T4 construct: SP (signal peptide) (N); FLAG (N); expressed in transfected cells
# T4 sequence (P25021 whole entry): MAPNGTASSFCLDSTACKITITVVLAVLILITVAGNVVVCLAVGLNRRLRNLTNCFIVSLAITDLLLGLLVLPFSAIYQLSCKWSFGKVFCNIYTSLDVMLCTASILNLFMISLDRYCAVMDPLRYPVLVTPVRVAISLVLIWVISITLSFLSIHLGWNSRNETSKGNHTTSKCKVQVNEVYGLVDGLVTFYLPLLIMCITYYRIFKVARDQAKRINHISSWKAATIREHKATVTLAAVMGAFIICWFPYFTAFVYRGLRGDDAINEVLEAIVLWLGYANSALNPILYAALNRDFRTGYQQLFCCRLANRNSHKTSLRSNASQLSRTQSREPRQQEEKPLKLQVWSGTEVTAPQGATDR
# Method: (§1) To check the selectivity profile of our lead structures, radioligand binding studies at other histamine receptor subtypes were carried out. […] Obtained results clearly indicate the high selectivity of the tested derivatives toward human H3R (Table 3).
# (§2) Compounds (as oxalate salts) were tested in H3R in vitro binding studies using the methods described previously.[21]−[23] […] Radioligand binding experiments at the H1R, H2R, and H4R were performed as previously described in Rosier et al.[65] and Bartole et al.[66] […] Data represent mean values ± CI from three independent experiments, each performed in triplicate. The normalized competition binding curves were then fitted with a four-parameter logistic fit yielding IC50 values using the Prism 8.4.3 software (GraphPad, San Diego, CA). The Ki values were estimated from the Cheng–Prusoff equation.[69]
# [5] = molecular target: T5, human histamine H4 receptor (hH4R) (Homo sapiens, UniProt Q9H3N8); experiment: hH4R radioligand binding ([3H]UR-PI294); conditions: read-out: hH4R (Ki [nM] x̅ [CI 95%]); HEK293T cells; n = 3, triplicate
# T5 construct: SP (signal peptide) (N); FLAG (N); expressed in transfected cells
# T5 sequence (Q9H3N8 whole entry): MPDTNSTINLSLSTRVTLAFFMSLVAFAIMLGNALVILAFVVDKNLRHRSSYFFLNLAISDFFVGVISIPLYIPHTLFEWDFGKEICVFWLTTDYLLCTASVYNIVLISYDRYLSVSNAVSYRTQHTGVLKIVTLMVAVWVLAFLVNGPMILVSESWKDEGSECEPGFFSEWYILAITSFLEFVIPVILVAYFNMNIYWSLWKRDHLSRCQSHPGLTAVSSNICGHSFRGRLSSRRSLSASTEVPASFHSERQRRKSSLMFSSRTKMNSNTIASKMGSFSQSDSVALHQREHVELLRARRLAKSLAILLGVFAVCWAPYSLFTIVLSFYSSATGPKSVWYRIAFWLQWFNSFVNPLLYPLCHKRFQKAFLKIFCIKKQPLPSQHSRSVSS
# Method: as §1, §2
# [6] = parallel artificial membrane permeability assay (PAMPA); type: in vitro ADME; conditions: 100 μM in PBS pH 7.4, RT, read-out: Pe (permeability coefficient)
# mice [7] = experiment: motor coordination in the rotarod test; type: in vivo; conditions: 15 mg/kg i.p.; 6, 18 and 24 rpm
# Description: The neurotoxicity of the new compounds can result in impaired motor functions of the experimental animals, which may subsequently cause false interpretation of the results of in vivo tests. Understandably, neurotoxicity is also the frequent reason for eliminating the tested compound from further studies. To minimize that risk, we investigated the influence of our lead structures on motor coordination in the rotarod test, which is the classical test used for assessing motor coordination and balance in rodents. It provides a quick and simple estimation of neuromuscular coordination. […] The time spent on the rotarod apparatus was 60 s for each control mouse.
# The test was carried out on the semiautomatic rotarod apparatus (Rotarod apparatus Panlab/Harvard Apparatus, LE 8200, Spain) according to the method previously described in the literature.[85] The mice were trained for 3 days on the rod rotating at a constant speed of 18 rotations per minute (rpm). During each training session, the animals were placed on the rod for 3 min with an unlimited number of trials. On the test day (24 h after the final training trial), 30 min before the rotarod test, the mice were pretreated (i.p.) with the test compound (15 mg/kg). Then, the animals were tested on the rotarod revolving at 6, 18, and then 24 rpm. Motor impairments, defined as the inability to remain on the rotating rod for 1 min, were measured at each speed.
# [8] = molecular target: T2, human recombinant histamine H3R; experiment: hH3R radioligand binding ([3H]Nα-methylhistamine depletion assay); conditions: read-out: hH3R Ki [nM] x̄ [CI 95%]; mean [CI 95%]; HEK-293 cells
# [9] = molecular target: T6, human histamine H1 receptor (hH1R) (Homo sapiens, UniProt P35367); experiment: hH1R radioligand binding ([3H]mepyramine); conditions: read-out: hH1R (Ki [nM] x̅ [CI 95%]); HEK293T cells; n = 3, triplicate
# T6 construct: SP (signal peptide) (N); FLAG (N); expressed in transfected cells
# T6 sequence (P35367 whole entry): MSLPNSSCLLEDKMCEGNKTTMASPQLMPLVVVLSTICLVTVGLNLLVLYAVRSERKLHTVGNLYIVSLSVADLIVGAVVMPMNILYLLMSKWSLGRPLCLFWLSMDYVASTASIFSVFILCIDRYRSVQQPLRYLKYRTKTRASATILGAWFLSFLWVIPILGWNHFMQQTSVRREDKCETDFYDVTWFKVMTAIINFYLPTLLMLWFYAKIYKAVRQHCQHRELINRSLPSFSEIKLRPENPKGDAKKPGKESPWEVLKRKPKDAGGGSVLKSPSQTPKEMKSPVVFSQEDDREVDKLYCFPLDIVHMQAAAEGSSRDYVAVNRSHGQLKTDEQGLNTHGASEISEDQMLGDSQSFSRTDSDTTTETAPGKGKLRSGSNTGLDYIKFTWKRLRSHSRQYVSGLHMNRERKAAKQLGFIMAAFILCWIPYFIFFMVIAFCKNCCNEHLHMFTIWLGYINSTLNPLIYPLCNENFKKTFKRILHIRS
# Method: as §1, §2
# mice [10] = experiment: formalin test; type: in vivo; conditions: for ED50: Mus musculus, ip
# Description: The formalin test is one of the most useful screening models for testing potentially clinically relevant antinociceptive molecules because of its ease of administration, standardization, and validation with reference drugs.[50] The subcutaneous injection of formalin results in a focal injury that stimulates and then damages sensory endings. Two distinct phases of nociceptive response are associated with the immediate activation of nociceptors and sensitization of spinal reflex circuits during phase I and II responses, respectively.[51]
# The procedure used was essentially the same as that described previously.[86],[87] Briefly, 20 μL of 1.5% formalin solution was injected intraplantarly (i.pl.) into the mice right hind paw using a 26-gauge needle. […] The total time (in seconds) spent on licking the injected paw during periods of 0–5 min (early phase, neurogenic) and 15–30 min (late phase, inflammatory) was measured and was considered as an indicator of nociceptive behavior. Before formalin injection, different groups of mice were treated i.p. with the vehicle (10 mL/kg, negative control) and the varying doses of 12 (5, 10, 15, and 30 mg/kg).
# sigma-1 receptor (σ1R) [11] = experiment: σ1R radioligand binding ([3H](+)-pentazocine); set-up: species or system guinea pig; conditions: ratio of σ2R Ki to σ1R Ki
# mice [12] = experiment: loperamide-induced antinociception (paw pressure, struggle response latency); type: in vivo, Female CD1 mice
# [13] = pKa determination by potentiometric titration; type: physicochemical; conditions: for pKa: aqueous solution
# Method: In addition, we tested the amino alcohol fragments of these compounds to carefully monitor the influence of individual protonated nitrogen atoms on the obtained pKa values (Figure 4). […] Based on a previously modified potentiometric procedure,[27],[28] a series of titrations were performed, and the pKa values were determined using the Kostrowicki and Liwo algorithm.[29],[30] […] That explains the surprising result of free base crystallization attempts where iodide salt was obtained instead of the neutral form. On the other hand, in the same environment, KSK94 exists in two forms: the monoprotonated form [HL^+] (20.56%) and the free ligand [L] (77.72%, Figure 5). […] KSK68 can be characterized as a basic ligand with pKa1 = 4.9 (pyridine N) and pKa2 = 8.4 (piperidine N). The pKa values are consistent with those determined by the same procedure for the corresponding amino alcohol 3-(4-(pyridin-4-yl)piperidin-1-yl)propan-1-ol (Figure 4). […] A similarly low pKa2 value for the N7 piperazine nitrogen atom was also determined for the corresponding amino alcohol 3-(4-(pyridin-4-yl)piperazin-1-yl)propan-1-ol (Figure 4), which is in agreement with the value obtained for 1-phenyl-4-methyl piperazine reported in the literature.[31] […] The lowest value was determined for 4-nitrophenyl, and the highest was for 2-methylphenyl derivatives.[32]
# The potentiometric microtitration was performed in a thermostated 20 mL cell using a CerkoLab microtitration unit fitted with a pH electrode (Hydromet ERH-13-6). The electrode was calibrated with the use of buffer solutions: pH = 4.00, 7.00, and 10.00. Titrant T (0.1 M KOH) was standardized according to the general analytical procedure and protected from carbon dioxide. Double distilled water with a conductivity of about 0.18 mS/cm was used to prepare all aqueous solutions. DMSO (HPLC grade, 99.5%) was supplied by Sigma Aldrich. The concentration of the titrant solution (D) was 0.0025–0.005 M. The solubilization procedure was follows: The appropriate amount of KSK compound was dissolved in 1 mL 0.1 M HCl and 1 mL DMSO to prepare a 25 mL stock solution. The developed solubilization system can be recommended for poorly soluble derivatives. The analytical procedure was a follows: volume V0 = 4.5 mL of titrant D was titrated with 0.1 M titrant T using the CerkoLab System equipped with a 5 mL syringe pump.
# [14] = observation during crystallization
# [15] = 0–5 min after formalin, read-out: ED50, formalin test phase I (acute phase)
# [16] = 15–30 min after formalin, read-out: ED50, formalin test phase II (late phase)
# [17] = Figure 5, species distribution from titration curves
# [18] = experimental, potentiometric titration
smiles,measurement,setting,value
"c1ccc(-c2ccc(OCCCCCN3CCCCC3)cc2)cc1 [Compound 10, 1-(5-([1,1′-Biphenyl]-4-yloxy)pentyl)piperidine Oxalate]",Ki,sigma-2 receptor (σ2R),19 nM
same,Ki,[1],21.7 nM
same,Ki,sigma-1 receptor (σ1R) [2],140 nM
c1cc(OCCCN2CCCCC2)ccc1CN1CCCCC1 [JNJ-5207852],Ki,H3R,0.3 nM
"c1ccc(-c2ccc(OCCCCCCN3CCCCC3)cc2)cc1 [Compound 11, 1-(6-([1,1′-Biphenyl]-4-yloxy)hexyl)piperidine Oxalate]",Ki,sigma-2 receptor (σ2R),46 nM
same,Ki,[1],88.9 nM
same,Ki,sigma-1 receptor (σ1R) [2],118 nM
"c1ccc(Nc2ccc(OCCCN3CCCCC3)cc2)cc1 [Compound 7, N-Phenyl-4-(3-(piperidin-1-yl)propoxy)aniline Oxalate]",influence on spontaneous locomotor activity (sedative effect),mice [3],high and significant sedative effects
same,Ki,[4],> 10000 nM
same,Ki,[5],> 10000 nM
same,"Papp at 5 h, 100 µM",[6],10.6 ×10⁻⁶ cm/s
same,"influence on motor coordination, time on rotarod",mice [7],significantly decreased the time spent on the rod at 18 and 24 rpm
same,Ki,sigma-2 receptor (σ2R),116 nM
same,Ki,[8],5.2 nM
same,Ki,[9],> 10000 nM
same,ED50,mice [10]; [15],11.9 mg/kg
same,ED50,mice [10]; [16],11.7 mg/kg
same,"ED50, formalin test phase I (acute phase)","mice [10]; i.p., 0–5 min after formalin",11.95 mg/kg
same,"ED50, formalin test phase II (late phase)","mice [10]; i.p., 15–30 min after formalin",11.71 mg/kg
same,σ2/σ1 ratio,sigma-1 receptor (σ1R) [11],24.2
same,Ki,sigma-1 receptor (σ1R) [2],4.8 nM
"Cc1cc(OCCN2CCOCC2)nn1-c1ccc2ccccc2c1 [Compound S1RA, 4-[2-[[5-methyl-1-(2-naphthalenyl)1H-pyraol-3-yl]oxy]ethyl]morpholine hydrochloride]","Papp at 5 h, 100 µM",[6],5.26 ×10⁻⁶ cm/s
same,in vivo σ1 receptor functional profile,mice [12]; concluded from PRE-084 reversal,σ1 receptor antagonists
same,effect on loperamide-induced antinociception,"mice [12]; i.pl. with loperamide 4 mg/kg s.c., injected paw",significantly and dose-dependently (50–100 μg) increased the antinociceptive effect induced by loperamide
same,effect alone on struggle response latency,"mice [12]; i.pl., S1RA 100 μg, 12 25 μg, 450 g pressure",did not change the response to the mechanical stimulus
same,Ki,H3R,> 10000 nM
"c1ccc(-c2ccc(OCCCN3CCCCCC3)cc2)cc1 [Compound 3, 1-(3-([1,1′-Biphenyl]-4-yloxy)propyl)azepane Oxalate]",influence on spontaneous locomotor activity (sedative effect),mice [3],high and significant sedative effects
same,Ki,[4]; read-out: hH2R (Ki [nM] x̅ [CI 95%]),> 10000 nM
same,Ki,[5],> 10000 nM
same,"Papp at 5 h, 100 µM",[6],6.57 ×10⁻⁶ cm/s
same,"influence on motor coordination, time on rotarod",mice [7],significantly impaired the motor coordination of mice
same,Ki,sigma-2 receptor (σ2R),25 nM
same,Ki,[8],4.3 nM
same,Ki,[9],7620 nM
same,ED50,mice [10]; [15],14.2 mg/kg
same,ED50,mice [10]; [16],13.3 mg/kg
same,σ2/σ1 ratio,sigma-1 receptor (σ1R) [11],13.2
same,Ki,sigma-1 receptor (σ1R) [2],1.9 nM
O=C(c1ccc(OCCCN2CCC(c3ccncc3)CC2)cc1)C1CC1 [KSK68],pK of equilibrium H2L+2 = H+ + HL+,[13]; [17],4.94
same,pK of equilibrium HL+ = H+ + L0,[13]; [17],8.38
same,monoprotonated form [HL+],[13]; aqueous solution at physiological pH,approximately 90%
same,pKa,"[13]; experimental, potentiometric titration, read-out: pKa1",4.9
same,pKa,"[13]; experimental, potentiometric titration, read-out: pKa2",8.4
same,pKa1,[13]; [18],4.94
same,pKa2,[13]; [18],8.38
same,solubility in water,[14],more soluble in H2O than KSK67

# Reference: paper PMC10388327, “Dual Piperidine-Based Histamine H3 and Sigma-1 Receptor Ligands in the Treatment of Nociceptive and Neuropathic Pain” (Journal of Medicinal Chemistry, 2023)
